Laboratory results as given in publication PMC11951083, “Highly Specific Miniaturized Fluorescent Monoacylglycerol Lipase Probes Enable Translational Research” (Journal of the American Chemical Society, 2025).

Experiments:
[1] = biological target: mu (MOP) (h) (Homo sapiens, UniProt P35372); test: mu (MOP) (h) (agonist radioligand); conditions: read-out: Inhibition mu (MOP) (h) (agonist radioligand)
[2] = biological target: FP (h) (Homo sapiens, UniProt P43088); test: FP (h) (agonist radioligand); conditions: read-out: Inhibition FP (h) (agonist radioligand)
[3] = biological target: 5-HT2B (h) (Homo sapiens, UniProt P41595); test: 5-HT2B (h) (agonist radioligand); conditions: read-out: Inhibition 5-HT2B (h) (agonist radioligand)
[4] = biological target: norepinephrine transporter (h) (Homo sapiens, UniProt P23975); test: norepinephrine transporter (h) (antagonist radioligand); conditions: read-out: Inhibition norepinephrine transporter (h) (antagonist radioligand)
[5] = biological target: GSK3alpha (h) (Homo sapiens, UniProt P49840); test: GSK3alpha (h); conditions: read-out: Inhibition GSK3alpha (h)
[6] = system: PCP; test: PCP (antagonist radioligand); conditions: 10 µM
[7] = biological target: T1, ZAP70 kinase (h) (Homo sapiens, UniProt P43403); test: ZAP70 kinase (h); conditions: read-out: Inhibition ZAP70 kinase (h)
T1 sequence (P43403 1-619): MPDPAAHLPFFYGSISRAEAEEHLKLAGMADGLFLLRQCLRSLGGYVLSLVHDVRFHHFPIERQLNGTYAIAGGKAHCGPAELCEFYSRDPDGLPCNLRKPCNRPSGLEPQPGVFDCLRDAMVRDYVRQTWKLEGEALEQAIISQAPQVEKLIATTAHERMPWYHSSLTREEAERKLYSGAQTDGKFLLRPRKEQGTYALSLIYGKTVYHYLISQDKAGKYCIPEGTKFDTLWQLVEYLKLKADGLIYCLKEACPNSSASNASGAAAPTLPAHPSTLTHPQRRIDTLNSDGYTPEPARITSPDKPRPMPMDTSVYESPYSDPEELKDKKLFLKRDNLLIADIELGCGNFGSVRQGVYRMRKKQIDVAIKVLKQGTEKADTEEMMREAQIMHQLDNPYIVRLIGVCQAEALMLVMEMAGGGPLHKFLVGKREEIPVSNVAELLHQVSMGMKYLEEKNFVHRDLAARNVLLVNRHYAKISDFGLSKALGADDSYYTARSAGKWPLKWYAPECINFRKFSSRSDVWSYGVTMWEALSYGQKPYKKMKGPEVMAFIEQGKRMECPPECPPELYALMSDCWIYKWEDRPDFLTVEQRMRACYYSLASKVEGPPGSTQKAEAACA

[8] = biological target: T2, alpha2A (h) (Homo sapiens, UniProt P08913); test: alpha2A (h) (antagonist radioligand); conditions: read-out: Inhibition alpha2A (h) (antagonist radioligand)
T2 sequence (P08913 1-465): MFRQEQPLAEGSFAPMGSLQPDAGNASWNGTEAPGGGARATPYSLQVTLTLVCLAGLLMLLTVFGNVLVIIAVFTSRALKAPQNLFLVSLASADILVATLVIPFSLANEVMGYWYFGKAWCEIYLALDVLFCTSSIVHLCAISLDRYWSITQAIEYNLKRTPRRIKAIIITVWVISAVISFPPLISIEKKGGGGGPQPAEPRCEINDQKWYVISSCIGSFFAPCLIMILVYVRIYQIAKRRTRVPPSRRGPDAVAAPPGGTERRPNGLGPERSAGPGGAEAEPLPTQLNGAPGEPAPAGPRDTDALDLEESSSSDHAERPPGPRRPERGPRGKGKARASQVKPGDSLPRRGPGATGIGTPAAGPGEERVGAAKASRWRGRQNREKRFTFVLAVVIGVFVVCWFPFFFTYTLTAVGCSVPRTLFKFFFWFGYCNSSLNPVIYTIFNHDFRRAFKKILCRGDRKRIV

[9] = system: 50 clinically relevant and safety-related off-targets; test: CEREP panel of 50 off-targets (overall); conditions: for selectivity profile in off-target panel: 10 μM, panel of 50 unrelated off-target receptors and enzymes; for S(50): fraction of targets with more than 50% inhibition at 10 µM; for S(90): fraction of targets with more than 90% inhibition at 10 µM
[10] = biological target: T3, 5-HT1A (h) (Homo sapiens, UniProt P08908); test: 5-HT1A (h) (agonist radioligand); conditions: read-out: Inhibition 5-HT1A (h) (agonist radioligand)
T3 sequence (P08908 1-422): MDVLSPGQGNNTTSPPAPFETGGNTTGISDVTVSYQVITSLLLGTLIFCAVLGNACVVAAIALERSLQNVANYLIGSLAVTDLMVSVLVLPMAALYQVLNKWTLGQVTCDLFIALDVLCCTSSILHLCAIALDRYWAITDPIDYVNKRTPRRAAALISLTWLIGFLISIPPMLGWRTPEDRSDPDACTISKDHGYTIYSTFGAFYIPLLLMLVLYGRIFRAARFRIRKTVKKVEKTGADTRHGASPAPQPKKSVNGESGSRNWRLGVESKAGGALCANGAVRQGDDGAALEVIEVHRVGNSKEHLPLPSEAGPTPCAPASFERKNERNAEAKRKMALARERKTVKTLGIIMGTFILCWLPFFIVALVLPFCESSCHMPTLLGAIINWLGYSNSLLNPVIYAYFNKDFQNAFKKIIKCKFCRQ

[11] = biological target: ACE (h) (Homo sapiens, UniProt P12821); test: ACE (h); conditions: read-out: Inhibition ACE (h)
[12] = biological target: T4, A1 (h) (Homo sapiens, UniProt P30542); test: A1 (h) (agonist radioligand); conditions: read-out: Inhibition A1 (h) (agonist radioligand)
T4 sequence (P30542 1-326): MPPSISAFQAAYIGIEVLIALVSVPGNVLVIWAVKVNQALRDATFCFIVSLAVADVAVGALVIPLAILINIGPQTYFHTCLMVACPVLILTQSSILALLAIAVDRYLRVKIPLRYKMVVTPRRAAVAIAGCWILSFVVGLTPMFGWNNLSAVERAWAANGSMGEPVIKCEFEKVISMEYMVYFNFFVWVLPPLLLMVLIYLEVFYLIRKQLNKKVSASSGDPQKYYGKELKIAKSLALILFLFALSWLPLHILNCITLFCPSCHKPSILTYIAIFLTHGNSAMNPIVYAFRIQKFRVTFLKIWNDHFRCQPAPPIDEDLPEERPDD

Sequence of mu (MOP) (h) (P35372 whole entry): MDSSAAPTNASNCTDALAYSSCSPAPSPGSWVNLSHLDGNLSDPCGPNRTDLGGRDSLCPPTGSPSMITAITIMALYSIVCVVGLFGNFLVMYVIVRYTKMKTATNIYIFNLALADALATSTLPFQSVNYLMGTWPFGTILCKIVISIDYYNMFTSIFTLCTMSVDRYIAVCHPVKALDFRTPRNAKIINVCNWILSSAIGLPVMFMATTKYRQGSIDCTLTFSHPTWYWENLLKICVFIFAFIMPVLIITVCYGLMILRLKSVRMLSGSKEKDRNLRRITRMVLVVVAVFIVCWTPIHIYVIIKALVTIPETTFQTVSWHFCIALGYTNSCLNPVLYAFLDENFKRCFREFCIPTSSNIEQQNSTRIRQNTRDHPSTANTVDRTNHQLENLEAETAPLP
Sequence of norepinephrine transporter (h) (P23975 whole entry): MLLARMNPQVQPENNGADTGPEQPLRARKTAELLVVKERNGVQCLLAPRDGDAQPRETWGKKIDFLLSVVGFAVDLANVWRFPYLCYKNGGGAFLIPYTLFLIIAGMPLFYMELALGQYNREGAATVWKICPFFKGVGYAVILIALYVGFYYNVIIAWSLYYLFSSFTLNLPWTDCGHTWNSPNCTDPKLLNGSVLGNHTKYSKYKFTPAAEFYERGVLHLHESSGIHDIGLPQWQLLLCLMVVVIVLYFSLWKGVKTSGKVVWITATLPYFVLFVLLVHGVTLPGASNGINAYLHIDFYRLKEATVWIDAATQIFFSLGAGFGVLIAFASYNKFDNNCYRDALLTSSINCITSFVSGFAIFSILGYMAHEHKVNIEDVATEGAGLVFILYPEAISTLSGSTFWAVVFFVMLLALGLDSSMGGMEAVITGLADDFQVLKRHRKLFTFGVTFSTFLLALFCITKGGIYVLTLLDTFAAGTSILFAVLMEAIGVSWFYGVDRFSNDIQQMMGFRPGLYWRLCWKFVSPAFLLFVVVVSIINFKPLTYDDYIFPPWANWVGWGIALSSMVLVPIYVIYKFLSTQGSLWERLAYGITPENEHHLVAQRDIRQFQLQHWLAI
Sequence of FP (h) (P43088 whole entry): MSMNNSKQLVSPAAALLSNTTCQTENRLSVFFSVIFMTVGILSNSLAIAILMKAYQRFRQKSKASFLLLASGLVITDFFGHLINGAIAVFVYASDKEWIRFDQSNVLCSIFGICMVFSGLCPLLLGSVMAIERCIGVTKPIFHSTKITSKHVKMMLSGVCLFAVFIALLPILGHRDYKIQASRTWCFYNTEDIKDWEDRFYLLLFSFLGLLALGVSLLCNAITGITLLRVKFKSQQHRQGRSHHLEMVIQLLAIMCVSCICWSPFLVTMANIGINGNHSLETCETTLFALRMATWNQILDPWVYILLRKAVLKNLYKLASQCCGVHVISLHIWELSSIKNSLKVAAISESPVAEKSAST
Sequence of 5-HT2B (h) (P41595 whole entry): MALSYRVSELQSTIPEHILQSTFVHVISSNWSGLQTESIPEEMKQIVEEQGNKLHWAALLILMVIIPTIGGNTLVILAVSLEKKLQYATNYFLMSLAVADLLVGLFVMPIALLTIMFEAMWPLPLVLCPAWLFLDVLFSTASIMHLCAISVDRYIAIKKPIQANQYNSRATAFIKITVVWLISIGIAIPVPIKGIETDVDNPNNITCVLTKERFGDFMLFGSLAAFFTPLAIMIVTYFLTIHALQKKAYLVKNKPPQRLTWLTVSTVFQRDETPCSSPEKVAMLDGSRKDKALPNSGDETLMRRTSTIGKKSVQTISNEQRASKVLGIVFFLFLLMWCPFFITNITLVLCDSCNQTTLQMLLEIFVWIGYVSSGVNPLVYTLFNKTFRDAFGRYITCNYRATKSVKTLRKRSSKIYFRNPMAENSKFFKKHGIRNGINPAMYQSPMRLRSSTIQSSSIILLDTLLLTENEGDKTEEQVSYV
Sequence of ACE (h) (P12821 30-1306): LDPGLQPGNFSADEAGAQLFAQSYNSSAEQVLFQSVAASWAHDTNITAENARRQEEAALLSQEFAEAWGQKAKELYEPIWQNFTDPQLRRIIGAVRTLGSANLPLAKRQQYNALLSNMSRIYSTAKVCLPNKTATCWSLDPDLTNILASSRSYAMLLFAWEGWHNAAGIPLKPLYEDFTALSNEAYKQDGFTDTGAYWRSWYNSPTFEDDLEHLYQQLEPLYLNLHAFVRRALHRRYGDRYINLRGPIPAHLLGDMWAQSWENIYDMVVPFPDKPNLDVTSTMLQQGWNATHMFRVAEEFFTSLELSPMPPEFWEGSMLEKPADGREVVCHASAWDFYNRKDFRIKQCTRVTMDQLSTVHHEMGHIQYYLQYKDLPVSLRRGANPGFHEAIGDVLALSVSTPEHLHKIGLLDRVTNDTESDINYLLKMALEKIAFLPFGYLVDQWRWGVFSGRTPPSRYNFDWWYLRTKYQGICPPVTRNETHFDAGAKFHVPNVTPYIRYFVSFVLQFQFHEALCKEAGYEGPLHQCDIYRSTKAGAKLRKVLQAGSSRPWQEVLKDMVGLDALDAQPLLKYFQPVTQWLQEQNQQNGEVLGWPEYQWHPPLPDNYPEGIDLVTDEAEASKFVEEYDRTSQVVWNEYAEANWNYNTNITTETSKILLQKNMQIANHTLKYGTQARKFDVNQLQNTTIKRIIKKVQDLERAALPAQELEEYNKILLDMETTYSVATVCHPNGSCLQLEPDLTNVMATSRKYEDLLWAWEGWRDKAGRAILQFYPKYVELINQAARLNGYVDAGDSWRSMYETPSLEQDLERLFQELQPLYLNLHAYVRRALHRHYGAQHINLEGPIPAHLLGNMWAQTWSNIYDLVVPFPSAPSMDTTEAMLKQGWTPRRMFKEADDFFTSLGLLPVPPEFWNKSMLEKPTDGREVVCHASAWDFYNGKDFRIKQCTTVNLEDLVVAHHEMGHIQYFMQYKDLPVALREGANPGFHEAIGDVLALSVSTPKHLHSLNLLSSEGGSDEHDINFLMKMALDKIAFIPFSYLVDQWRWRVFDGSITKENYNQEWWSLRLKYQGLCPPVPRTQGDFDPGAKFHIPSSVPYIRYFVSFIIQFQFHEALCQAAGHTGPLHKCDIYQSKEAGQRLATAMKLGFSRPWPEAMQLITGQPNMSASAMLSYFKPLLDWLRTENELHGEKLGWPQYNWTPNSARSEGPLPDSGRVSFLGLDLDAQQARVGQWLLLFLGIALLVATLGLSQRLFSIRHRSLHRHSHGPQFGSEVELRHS
Sequence of GSK3alpha (h) (P49840 whole entry): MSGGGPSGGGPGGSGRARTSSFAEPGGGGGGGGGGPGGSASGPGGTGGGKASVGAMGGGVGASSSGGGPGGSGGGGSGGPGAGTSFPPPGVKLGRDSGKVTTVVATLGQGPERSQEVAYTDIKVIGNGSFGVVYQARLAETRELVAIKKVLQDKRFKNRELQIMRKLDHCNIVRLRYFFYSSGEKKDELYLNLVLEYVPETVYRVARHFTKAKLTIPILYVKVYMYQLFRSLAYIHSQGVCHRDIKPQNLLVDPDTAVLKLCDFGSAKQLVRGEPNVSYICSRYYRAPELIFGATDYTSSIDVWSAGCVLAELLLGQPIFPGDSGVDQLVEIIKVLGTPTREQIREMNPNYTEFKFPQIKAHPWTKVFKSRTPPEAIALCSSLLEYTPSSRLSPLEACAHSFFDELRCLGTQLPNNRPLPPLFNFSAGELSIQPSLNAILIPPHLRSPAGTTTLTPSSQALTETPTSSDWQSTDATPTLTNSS

Structure (SMILES): O=C(OC(C(F)(F)F)C(F)(F)F)N1CC2(CC(CC3=C4C=CC=[N+]4[B-](F)(F)n4cccc43)C2)C1 [Compound 2]
- inhibition at 10 µM [1]: -0.4%
- inhibition at 10 µM [2]: 6.5%
- inhibition at 10 µM [3]: 4.1%
- inhibition at 10 µM [4]: -0.5%
- inhibition at 10 µM [5]: -3.4%
- Inhibition PCP (antagonist radioligand) [6]: -5,50%
- inhibition at 10 µM [7]: -2%
- inhibition at 10 µM [8]: -2.2%
- selectivity profile in off-target panel [9]: very clean selectivity profile
- S(50) [9]: 4.0%
- S(90) [9]: 0.0%
- inhibition at 10 µM [10]: -29.4%
- inhibition at 10 µM [11]: -15.8%
- inhibition at 10 µM [12]: 4.4%

Structure (SMILES): O=C1CO[C@H]2CCN(C(=O)N3CC4(CC(CC5=C6C=CC(c7ccc[nH]7)=[N+]6[B-](F)(F)n6cccc65)C4)C3)C[C@H]2N1 [Compound 4a]
- inhibition at 10 µM [1]: 11%
- inhibition at 10 µM [2]: 16.3%
- inhibition at 10 µM [3]: 30.3%
- inhibition at 10 µM [4]: 12.2%
- inhibition at 10 µM [5]: -24.8%
- Inhibition PCP (antagonist radioligand) [6]: 3,60%
- inhibition at 10 µM [7]: 5.4%
- inhibition at 10 µM [8]: 7.4%
- selectivity profile in off-target panel [9]: very clean selectivity profile
- S(50) [9]: 0.0%
- S(90) [9]: 0.0%
- inhibition at 10 µM [10]: -2.4%
- inhibition at 10 µM [11]: -21.2%
- inhibition at 10 µM [12]: 8.7%

Structure (SMILES): O=C(O[C@H](CO)C(F)(F)F)N1CC2(CC(CC3=C4C=CC=[N+]4[B-](F)(F)n4cccc43)C2)C1 [Compound 1]
- inhibition at 10 µM [1]: 4%
- inhibition at 10 µM [2]: 11.6%
- inhibition at 10 µM [3]: 28.3%
- inhibition at 10 µM [4]: 7.4%
- inhibition at 10 µM [5]: 0.3%
- Inhibition PCP (antagonist radioligand) [6]: 6,90%
- inhibition at 10 µM [7]: 4.3%
- inhibition at 10 µM [8]: 11.7%
- selectivity profile in off-target panel [9]: very clean selectivity profile
- S(90) [9]: 0.0%
- inhibition at 10 µM [10]: 0%
- inhibition at 10 µM [11]: -10.4%
- inhibition at 10 µM [12]: -3.9%

Structure (SMILES): O=C(OC(C(F)(F)F)C(F)(F)F)N1CC2(CC(CC3=C4C=CC(c5ccc[nH]5)=[N+]4[B-](F)(F)n4cccc43)C2)C1 [Compound 2a]
- inhibition at 10 µM [1]: 7.6%
- inhibition at 10 µM [2]: 4.4%
- inhibition at 10 µM [3]: 20.8%
- inhibition at 10 µM [4]: 6.3%
- inhibition at 10 µM [5]: -5.8%
- Inhibition PCP (antagonist radioligand) [6]: -18,80%
- inhibition at 10 µM [7]: 2.3%
- inhibition at 10 µM [8]: -0.9%
- selectivity profile in off-target panel [9]: very clean selectivity profile
- S(50) [9]: 0.0%
- S(90) [9]: 0.0%
- inhibition at 10 µM [10]: -5.5%
- inhibition at 10 µM [11]: -4.4%
- inhibition at 10 µM [12]: -1%

Structure (SMILES): O=C(N1CC2(CC(CC3=C4C=CC=[N+]4[B-](F)(F)n4cccc43)C2)C1)N1CC2(CC(n3cnc(C4CC4)n3)C2)C1 [Compound 5]
- inhibition at 10 µM [1]: 8.5%
- inhibition at 10 µM [2]: 10.4%
- inhibition at 10 µM [3]: 0.1%
- inhibition at 10 µM [4]: 8.6%
- inhibition at 10 µM [5]: -1.8%
- Inhibition PCP (antagonist radioligand) [6]: -14,20%
- inhibition at 10 µM [7]: 6.9%
- inhibition at 10 µM [8]: -8.9%
- selectivity profile in off-target panel [9]: very clean selectivity profile
- S(90) [9]: 0.0%
- inhibition at 10 µM [10]: 2.4%
- inhibition at 10 µM [11]: -21.1%
- inhibition at 10 µM [12]: 1.3%
